Test results as given in patent US8828993B2, “Psychotropic agents having glutamate NMDA activity” (Ramot At Tel-Aviv University Ltd., priority 2006, dated 2014).
Where a name gives a salt, the structure may show the parent alone.

Key:
Assay type in all cases: in vivo
[1] = test system: MK-801-induced hyperactivity in mice; test: MK-801-induced hyperactivity in open field
Method: MK-801-Induced Stereotype Behavior in Rats (in Open Field)—
MK-801 is an analogue of PCP which inhibits NMDA receptors and elicits hyperlocomotion and stereotypic behavior in rodents and is used as an animal model of schizophrenia (Stephen, et al., Topiramate antagonizes MK-801 in an animal model of schizophrenia, Eur. J. Pharmacol. 449, 2002, 121-5). For experimentation, naïve Balb/c mice were used. MK-801 (0.15 mg/kg i.p) was administered 40 minutes after Compound 1 (or any one of the other compounds of the invention) or a vehicle, and 20 minutes prior to placing the mouse in an open field.
Animals placed in the open field were followed for 60 minutes and their distance moved, velocity, duration of immobility, and number of rearing events were registered using the Noldus system.
As stated above, MK-801 inhibits NMDA receptors and elicits hyperlocomotion. Therefore, where an antagonism of the hyperactivity-induced by the MK-801 is observed upon administration of a compound of the invention, it is an indication as to the positive modulation of the NMDA activity. In other words, such a compound may be considered as useful in the treatment of schizophrenia.
The effect of Compound 6 on the distance moved in Balb/c mice exposed to MK-801 ([…]) i.p. and to Compound 6 (up to 12.5 mg/kg, i.p.) administered 1 hr prior to MK-801 was also tested.
As stated above, MK-801 (an NMDA receptor antagonist) is a widely accepted animal model for schizophrenia. The experiment was conducted with Balb/c male mice (Harlan Il), 6 per group. Compound 1 (50 mg/kg) was administered i.p. (1 hr before experimentation), to mice alone or combined with MK-801 (0.15 mg/kg, i.p.) administered 20 minutes prior to placing the mice individually in an open field for 60 minutes. The hyper-active behavior expressed by hyperlocomotion, velocity, strong mobility, number of rearing was evaluated using the Noldus system, each point represents the mean+/−6 determinations.

[2] = test system: amphetamine-induced hyperactivity in mice; test: Amphetamine-induced hyperactivity and stereotypic behavior; conditions: ICR male mice
Excerpt: The amphetamine-induced hyperactivity and motility is one of the most popular animal models for schizophrenia (Pouzet B, et al., Effects of the 5-HT(7) receptor antagonist SB-258741 in animal models for schizophrenia. Pharmacol Biochem Behav April; 71(4):655-665, 2002 and Geyer, et al., Animal behavior models of the mechanisms underlying antipsychotic atypicalicity, Progress in Neuro-Psychopharmacol & Biological Psychiatry, 27, 1071-79, 2003). Amphetamines are known to augment dopaminergic and noradrenergic neurotransmission by inducing catecholamine release and preventing catecholamine reuptake
The experiment was conducted with ICR male mice placed in individual barrels. […] The locomotor activity, number of rearings and head movements was recorded every 15 minutes for 2 h.
As stated above, the amphetamine-induced hyperactivity and motility is one of the most popular animal models for schizophrenia. The experiment was conducted with ICR male mice placed in individual barrels. Compound 1 (20 mg/kg) was administered p.o to the mice 1 hr prior to i.p. administration of amphetamine (2. mg/kg). The hyper-active behavior expressed by the number of climbings and rearings and the stereotypic behavior expressed by the number of head movements was recorded every 15 minutes over a period of 1 h.
The effect of Compound 3 (12.5, 25 and 50 mg/kg, i.p.) on amphetamine-induced hyperactivity in Balb/c mice was also examined. Animals (6 per group) were injected with Compound 3 (12.5, 25 and 50 mg/kg) and 30 minutes later received amphetamine (2 mg/kg ip). After 30 minutes, animals were exposed to an open field test for a period of 20 minutes.

[3] = test system: mice; test: Forced swim test (FST)
Excerpt: This is one of the most widely used tools for screening antidepressant activity pre-clinically in acute treatment. The test was first described by Porsolt et al., (Behavioral despair in mice: a primary screening test for antidepressants. Arch. Int. Pharmacodyn. Ther. 229, pp. 327-336, 1977). The FST test is based on the observation that rats and mice develop an immobile posture when placed in an inescapable cylinder of water. This behavior is considered a behavioral despair as opposed to active form of coping with stressful conditions. The FST test is considered a good screening tool with good reliability and predictive validity.
Three parameters were defined in the evaluation of FST:
1. Immobility—defined in the traditional Porsolt test as when no additional activity is observed other than that required to keep the animal's head above water;
2. Swimming behavior—being the movement (usually horizontal) throughout the chamber that also includes crossing into another quadrant;
3. Climbing behavior—being defined as the upward-directed movements (vertical) of the forepaws along the side of the swim chamber.
The test in mice was conducted acutely (60-90 minutes post oral drug administration) and animals were dropped to the cylinder for 6 minutes and scoring was performed in the last 4 minutes after 2 minutes of adaptation.
Round glass cylinders, 18 cm in diameter and 20 cm deep were used. Water temperature was 24-28° C. Four parameters were taken: immobility, velocity, distance and strong mobility. The immobility in the animals was defined by activity lower than 10% movement of the center of gravity of the animal. Swimming was defined by the distance and the velocity of the animal, and climbing was related to strong mobility (movement of center of gravidance more than 30%).
Males Balb/c mice (Harlan Israel) were used. Animals were administered orally with Compound 1 (10 or 20 mg/kg) or with a vehicle.
Males ICR mice were used.

[4] = test system: ICR male mice; test: Subchronic toxicity
Method: Subchronic toxicity was tested in ICR male mice. Animals (5 per group) received Compound 1 daily (10 and 20 mg/kg p.o). Animals were followed up for 7 days; weight, food intake and water intake were registered.

[5] = test system: mice; test: Catalepsy bar test; conditions: doses of up to 50 mg/kg i.p., scored 90 minutes later
Method: Catalepsy in mice and rats serves as a behavioral model for the manifestation of the extrapyramidal adverse effects of neuroleptics (Worm, et al., Dopamine-like activities of an aminopyridazine derivative, CM 30366. A behavioral study, Naunyn-Schmeideberg's Arch Pharmacol, 334, 246-52, 1986).
Catalepsy in mice is evaluated using a bar test. The mice were placed in the middle of a steel rod situated between two platforms with their front paws resting on the bar. Animals were injected i.p. with a vehicle or Compound 1. Animals were scored 90 minutes later for the time it took each animal to reach the platform.

[6] = male Balb/c mice, 10 mg/kg oral, vs vehicle
[7] = ICR male mice, 10 and 20 mg/kg p.o. daily, 7 days

CNC(CN1CCN(C2=Nc3ccccc3Nc3sc(C)cc32)CC1)C(=O)OC (stereo not drawn) [Compound 6, 2-N-methylamino-3-[4-(2-methyl-10H-thieno[2,3-b][1.5]benzodiazepin-4-yl)-piperazin-1-yl]propionic acid, methyl ester trihydrochloride salt]
motility (distance moved) of MK-801 treated mice ([1]; Balb/c mice, up to 12.5 mg/kg i.p. 1 hr prior to MK-801 (15 mg/kg) i.p.): did not cause a consistent dose dependent effect

COC(=O)C(N)CN1CCN(C2=Nc3ccccc3Nc3sc(C)cc32)CC1 (stereo not drawn) [Compound 1, 2-amino-3-[4-(2-methyl-10H-thieno[2,3-b][1,5]benzodiazepin-4-yl)-piperazin-1-yl]-propionic acid, methyl ester hydrochloride salt]
rearing behavior, compound alone compared to control animals ([2]; 20 mg/kg p.o.): increased
increase in head movements induced by amphetamine (stereotypic behavior) ([2]; 20 mg/kg p.o. 1 hr prior to amphetamine 2 mg/kg i.p.): did not attenuate
hyperactivity induced by amphetamine (number of climbings and rearings) ([2]; 20 mg/kg p.o. 1 hr prior to amphetamine 2 mg/kg i.p., over 1 h): effective in antagonizing
vertical motility (number of rearings), compound alone ([1]; Balb/c male mice, 50 mg/kg i.p.): markedly suppressed
inhibition of rearings presented by MK-801 ([1]; Balb/c male mice, 50 mg/kg i.p. combined with MK-801 0.15 mg/kg i.p.): increased
basal and MK-801-induced stimulation of horizontal motility (distance moved, velocity, strong mobility) ([1]; Balb/c male mice, 50 mg/kg i.p., MK-801 0.15 mg/kg i.p., open field 60 minutes): clear cut decrease
hyperlocomotion effect of MK-801 ([1]; mice, 30 and 50 mg/kg i.p.): inhibited in a dose related manner
increased frequency to the center of animals treated with MK-801 ([1]; mice, 30 and 50 mg/kg i.p.): did not modify
time spent in the center (zone 3), MK-801 treated ([1]; mice, 30 and 50 mg/kg i.p.): increased
distance moved (swimming behavior) [3, 6]: significantly increased
strong mobility (climbing behavior) [3, 6]: significantly increased
immobility ([3]; male Balb/c mice, 20 mg/kg oral, vs vehicle): decreased
distance moved ([3]; male ICR mice, 20 mg/kg oral): did not modify
immobility ([3]; male ICR mice, 20 mg/kg oral): significantly decreased
strong mobility (climbing) ([3]; male ICR mice, 20 mg/kg oral): significantly decreased
velocity ([3]; male ICR mice, 20 mg/kg oral): did not modify
animal general behavior [4, 7]: no apparent difference
body weight compared to control animals [4, 7]: no difference
food intake compared to control animals [4, 7]: no difference
tolerability [4, 7]: well tolerated
water intake compared to control animals [4, 7]: no difference
toxic effect ([4]; up to 20 mg/kg given for 7 days): did not cause toxic effect
catalepsy [5]: did not induce catalepsy
